Results from patent publication US20180344735A1, “USE OF sGC STIMULATORS FOR THE TREATMENT OF GASTROINTESTINAL SPHINCTER DYSFUNCTION” (Ironwood Pharmaceuticals, Inc., priority 2015, published 2018).
Blank lines part the entries; values can stand above or below the compound they belong to.

Tests used:
[1] = test system: human lower esophageal sphincter (LES) tissues; test: Ex vivo relaxation of carbachol-pre-contracted human lower esophageal sphincter (LES) muscle strips, organ bath; type: cell-based
Method: The objective of this study was to determine the relaxation effects of two sGC stimulators, Compound A and Compound B (depicted below) on human lower esophageal sphincter (LES) tissues ex vivo. Human lower esophageal sphincter muscle strips were mounted in a wire myograph apparatus and pre-contracted with carbachol (Cch). A cumulative concentration response curve (CCRC) of Compound A and Compound B was then performed on the tissues. The concentration response was performed with the compounds alone, and/or with the test compounds in the presence of a fixed concentration of the NO donor DETA-NONOate.
Compound A and Compound B were stored at room temperature. On each experimental day, 10 mM stock of the test compound was prepared in DMSO. Further dilutions up to 0.1 μM were made serially in ethanol, and subsequently in distilled water, depending on solubility of the compounds in those solvents. Compound A and Compound B Vehicle solutions were made by following the same serial dilution methods
DETA-NONOate was stored at −20° C. On each experimental day, a stock solution of 100 mM was prepared in Phosphate Buffered Saline (PBS), pH 8 (Boston Bioproducts). A 1:10 dilution from the stock was made in PBS pH 8, to obtain a concentration of 10 mM.
SNP was stored at −20° C. On each experimental day, a stock solution of 100 mM was prepared in distilled water. 25 μl of the 100 mM stock was added to each bath for a final concentration of 100 μM in bath.
Tissues were obtained postmortem. Only macroscopically normal tissue that was obtained from donors with no known recent history of gastrointestinal disease.
Human LES mucosa-free muscle strips, of approximately 15 mm in length and 2-3 mm width were dissected free from surrounding tissue and mounted on tissue posts in 25 mL organ baths (Panlab 16 channel automated organ bath and thermostatic controller) containing physiological saline solution (PSS; composition: 119.0 mM NaCl, 4.70 mM KCl, 1.20 mM MgSO4, 24.9 mM NaHCO3, 1.20 mM KH2PO4, 2.50 mM CaCl2, 11.1 mM glucose), aerated with 95% O2/5% CO2, warmed and maintained at approximately 37° C. The PSS solution was supplemented with 1 μM indomethacin. The LES strips were mounted on the tissue posts and allowed to equilibrate for approximately 30 minutes.
The LES strips were set to a tension of 2.0 g+0.2 g. Baths were washed approximately every 15 minutes over a 60-minute period, with re-tensioning to 2.0±0.2 g if tension dropped below 1.0 g.
The viability of the LES muscle strips was tested by application of 80 mM KCl, looking for maximum contractility response. Upon plateau all baths were washed three times with PSS and the tension was allowed to return to baseline levels. The strips that responded to the KCl functional check were used for CCh-induced contractions.
For each one of compounds A and B, experiments were conducted with LES tissues from two human donors on two separate days.
Upon stabilization of baseline tension, each of the following experiments was allocated to one bath such that 9 or more muscle strips were set up for each compound on each experimental day.
Compound A Experiments with tissues from Donor 1: • 1. CCRC to DETA-NO vehicle • 2. CCRC to Compound A vehicle • 3. CCRC to DETA-NO • 4. CCRC to DETA-NO • 5. CCRC to Compound A • 6. CCRC to Compound A • 7. Since DETA-NO relaxed LES, a CCRC to Compound A was performed in the presence of DETA-NO at a sub-threshold concentration (1 μM, determined in conditions 3 and 4) • 8. CCRC to Compound A in the presence of DETA-NO ([…]) • 9. CCRC to Compound A vehicle in the presence of DETA-NO ([…]).
Compound A Experiments with tissues from Donor 2: • 1. CCRC to Compound A vehicle • 2. CCRC to Compound A vehicle • 3. CCRC to Compound A vehicle in the presence of 10 μM DETA-NO • 4. CCRC to Compound A vehicle in the presence of 30 μM DETA-NO • 5. CCRC to Compound A • 6. CCRC to Compound A • 7. CCRC to Compound A in the presence of 10 μM DETA-NO • 8. CCRC to Compound A in the presence of 10 μM DETA-NO • 9. […]

achalasia patients = settings: report from 2000; cited from earlier work
[2] = 10 μM compound in the presence of 30 μM DETA-NO
[3] = in the presence of 30 μM DETA-NO

Compound: OC(CNc1nc(-c2cc(-c3ccon3)n(Cc3ccccc3F)n2)ncc1F)(C(F)(F)F)C(F)(F)F [Compound A]
relaxation ([1]; 10 μM compound in the presence of 1 μM DETA-NO, donor 1): 16% | maximum relaxation ([1]; 10 μM compound in the presence of 10 μM DETA-NO, donor 2, N=4): 38% | maximum relaxation ([1]; 10 μM compound, absence of NO, first donor, N=2): 49% | maximum relaxation ([1]; 10 μM compound, absence of NO, second donor, N=2): 31% | maximum relaxation ([1]; in the presence of 30 μM DETA-NO, donor 2, N=3): 51%

Compound: NC(=O)[C@](O)(CNc1nc(-c2cc(-c3ccon3)n(Cc3ccccc3F)n2)ncc1F)C(F)(F)F [Compound B]
maximum relaxation relative to isoprenaline [1, 2]: 77% | maximum relaxation relative to isoprenaline ([1]; 10 μM compound, absence of NO, N=8): 47% | EC50 [1, 3]: 1700 nM

Compound: NCCN(CCN)/[N+]([O-])=N/O [DETA-NO, diethylenetriamine/NO, reference compound]
mean percentage relaxation ([1]; 10 μM DETA-NO alone, second donor, N=5): 8% | mean relaxation relative to isoprenaline ([1]; 30 μM DETA-NO alone, Compound B experiments, N=12): 7.6% | mean percentage relaxation ([1]; 30 μM DETA-NO alone, second donor, N=4): 13%

Compound: CCCc1nn(C)c2c(=O)[nH]c(-c3cc(S(=O)(=O)N4CCN(C)CC4)ccc3OCC)nc12 [sildenafil]
effect on LES pressure (achalasia patients): able to reduce LES pressure | effect on clinical symptoms (achalasia patients): clinical symptoms were not improved

Continued, in another order:

EC50 [1, 3]: 500 nM
Compound: COC(=O)N(C)c1c(N)nc(-c2nn(Cc3ccccc3F)c3ncccc23)nc1N [Compound C]
maximum relaxation relative to isoprenaline [1, 2]: 90%

EC50 [1, 3]: 1600 nM
Compound: C[C@@]1(C(F)(F)F)C(=O)Nc2nc(-c3nn(Cc4ncccc4F)c4ncc(F)cc34)nc(NCCC(F)(F)F)c21 [Compound D]
maximum relaxation relative to isoprenaline [1, 2]: 80%

EC50 [1, 3]: 530 nM
Compound: Fc1ccccc1Cn1nc(-c2nc(C(F)(F)F)n[nH]2)c2cccnc21 [Compound E]
maximum relaxation relative to isoprenaline [1, 2]: 89%
